Bounds are passed on as bounds.

Holding throughout (type): cell-based, human
For assay [1], the system named is ENaC. As to the kind of experiment: Benzamil-sensitive Isc (ENaC activity) in differentiated HBECs, Ussing chamber. To be noted: for cytokine concentration that decreased benzamil-sensitive Isc: 7 days incubation. The method, then: (§1) High individual variation in benzamil-sensitive current and TEER in HBECs. In an Ussing chamber-based experimental design, basal short-circuit current (Isc) and transepithelial electrical resistance (TEER) were recorded in differentiated HBECs from two lung donors that were grown on snapwells at an air-liquid interface for 28 to 35 days. Benzamil, a potent ENaC blocker was used to determine ENaC activity by calculating benzamil-sensitive Isc from changes in Isc that occur 15 minutes after adding 6 μM benzamil to the apical side of cells. […] Therefore, normalized data were used for all subsequent experiments for statistical analyses relating to FIGS. 13-18.
(§2) Basal treatment with cytokines [IL-13 (Abcam), IL-4 (PeproTech), TNF-α, IFN-γ and TGF-β1 (R&D Systems)] diluted in ALI medium started as early as day 14 post differentiation. Individual cytokines or cytokine cocktails were added to the culture medium at the desired concentrations and cells were incubated with the cytokines for a maximum of 16 days. ALI medium containing cytokines was changed every two days. Age-matched HBECs were assigned to the following treatment groups:
(§3) II Time-dependent studies: These studies were done using a concentration that ensured maximum inhibition of benzamil-sensitive Isc and TEER. HBECs were treated with respective cytokines for 2, 4, 6, 8, 10, 12, 14, or 16 days. IFN-γ, TNF-α or TGF-β1 at 1 ng/mL, IL-13 at 20 ng/mL and IL-4 at 2 ng/mL were used.
(§4) III Cytokine cocktails: were prepared using IFN-γ and TNF-α at 0.05, 0.5, 2.5, 5 and 10 ng/mL while TNF-α, IFN-γ and TGF-β1 at 1 ng/mL for each of the cytokines was added to the culture media for 7 days.
(§5) Ussing chamber experiments: Snapwells with differentiated HBECs that were incubated with cytokines or age-matched HBECs without cytokine exposure were mounted in Ussing chambers (Physiologic Instruments), and cells were either bathed in isotonic ringer solution containing 113.8 mM Na^+, 93.6 mM Cl^−, 25 mM HCO3^−, 5.2 mM K^+, 2.4 mM HPO4^−, 0.4 mM H2PO4^−, 1.2 mM Mg^2+, 1.2 mM Ca^2+, and 75 mM mannitol, or in AA-EC01. Glucose (5 mM) was added to the basal side, and chambers were bubbled with 95% O2 and 5% CO2 at 37° C. AA-EC01 contained 8 mM lysine, 8 mM tryptophan, 8 mM arginine, 8 mM glutamine, and 1.2 mM tyrosine, and AANC contained 8 mM leucine, 8 mM cysteine, 8 mM isoleucine, 8 mM aspartic acid and 8 mM glutamate (Ajinomoto), both diluted in an electrolyte solution containing 113.8 mM Na^t, 93.6 mM Cl^−, 25 mM HCO3^−, 5.2 mM K^+, 2.4 mM HPO4^−, 0.4 mM H2PO4^−, 1.2 mM Mg′, 1.2 mM Ca^2+ and 40 mM mannitol at pH 7.4 and 300 mOsm. Cell cultures were allowed to equilibrate in the Ussing chambers for 30 minutes while continuously voltage clamped to 0 mV. Basal short circuit current (Isc) and transepithelial electrical resistance (TEER) were recorded at 30-second intervals, and benzamil-sensitive Isc was calculated from the difference of basal Isc recorded after 30 minutes and Isc measured at 15 minutes after adding 6 μM of benzamil (ThermoFisher) to the apical side.
(§6) Statistical analysis: Results are presented as mean±standard error of mean (SEM). Analyses were performed with OriginPro 2018 software package. For each treatment group, values were tested for normal distribution using the Shapiro-Wilk normality test. […] The values were normalized to controls within the group, and data were pooled for comparison between groups. Kruskal-Wallis test was used for comparing the overall effect of ringer, AA-EC01 and AANC on benzamil-sensitive Isc and TEER, and Mann Whitney U test was used for pairwise comparison within the group and for comparison between basal values for each cytokine at zero ng/mL or day zero with each concentration and time period studied. P<0.05 was considered significant, and NS indicates not significant.

The subject of assay [2] is ENaC. As to the kind of experiment: ENaC current in HBEC after increasing cytokine concentrations for 7 days (FIGS. 9-11). The settings on record: for ENaC activity with increasing cytokine concentration: 7 days (FIGS. 9, 11). The method, then: FIG. 9: ENaC Activity in Human Bronchial Epithelial Cells after Exposure to Increasing Concentrations of TNF-α for 7 Days. Human bronchial epithelial cells (HBEC) were treated with different concentrations of TNF-α (0.00005, 0.0005, 0.005, 0.05, 0.5, 5, 50 or 500 ng/mL media) for 7 days.
FIG. 10: ENaC Activity in Human Bronchial Epithelial Cells after Exposure to Increasing Concentrations of IFN-γ for 7 Days. HBEC were treated with IFN-γ (0.00005, 0.0005, 0.005, 0.05, 0.5, 5, 50 or 500 ng/mL media) for 7 days.
FIG. 11: ENaC Activity in Human Bronchial Epithelial Cells after Exposure to Increasing Concentrations of TGF-β1 for 7 Days. HBEC were treated with TGF-β1 (0.00005, 0.0005, 0.005, 0.05, 0.5, 5, 50 or 500 ng/mL media) for 7 days.
In some embodiments, HBECs were treated with different concentrations of TNF-α ranging from 0.00005 ng/mL to 500 ng/mL TNF-α (e.g., 0.00005, 0.0005, 0.005, 0.05, 0.5, 5, 50 or 500 ng/mL TNF-α in media) for 7 days.

The test system of another assay is HBECs. As to the kind of experiment: TEER (epithelial barrier function) in differentiated HBECs, Ussing chamber. To be noted: for TEER, normalized to control: day 16; for cytokine concentration that increased TEER / epithelial resistance: 7 days incubation. The method, then: as §1, §2, §3, §4, §5, §6

For the substance “IFN-γ: type II IFN family cytokine (R&D Systems) added to HBEC culture medium”, the “benzamil-sensitive Isc, normalized to control” value with ENaC [1] (1 ng/mL cytokine, day 16) was found to be 43.7±7.0%. In addition, the “cytokine concentration that decreased benzamil-sensitive Isc” value in the assay on ENaC [1] was over 20 ng/mL. In the assay on ENaC [1] (IFN-γ 5×10^−4 ng/mL, 7 days, normalized to control), the “benzamil-sensitive Isc, of baseline values” was 161.62±9.7%. In the assay with ENaC [2] (7 days (FIG. 10)), the “IFN-γ concentration at which ENaC current decreased relative to baseline” value is on record as over 0.05 ng/mL media and the “IFN-γ concentration with significant decrease in ENaC activity” value was over 5 ng. For the same substance, in the assay on HBECs (1 ng/mL cytokine), the “TEER, normalized to control” value was determined as 142.5±12.3%. For the same substance, in the assay on HBECs, the “cytokine concentration that increased TEER / epithelial resistance” value is at least 0.5 ng/mL.
Regarding “IL-4: Th2 cytokine (PeproTech) added to HBEC culture medium”, the “benzamil-sensitive Isc, normalized to control” value with ENaC [1] (2 ng/mL IL-4, day 4) is listed as 59.9±9.4%. The “benzamil-sensitive Isc, normalized to control (maximum reduction)” value with ENaC [1] (2 ng/mL IL-4, day 10) came out at 8.6±5%. In addition, in the assay on HBECs (2 ng/mL IL-4, day 10), the “TEER, normalized to control (maximum inhibition)” value came to 37.5±2%.
For the substance “TGF-β1: Treg cytokine (R&D Systems) added to HBEC culture medium”, the “benzamil-sensitive Isc, normalized to control” value in the assay with ENaC [1] (1 ng/mL cytokine, day 4) turned out to be 64.4±8.3%; with ENaC [1] (1 ng/mL cytokine, day 16), 20.3±5.8%; with ENaC [1] (TGF-β1 0.5 ng/mL, 7 days), 70.4±2.5%; with ENaC [1] (TGF-β1 50 ng/mL, 7 days), 1.5±0.3%. Further, in the assay with ENaC [1], the “cytokine concentration that decreased benzamil-sensitive Isc” value is reported as at least 0.5 ng/mL. The “ENaC activity with increasing cytokine concentration” value with ENaC [2] was “concentration-dependent decrease”. In addition, the TEER over time result in the assay with HBECs (1 ng/mL cytokine, up to 16 days) was “remained unaffected”. Moreover, in the assay with HBECs, the “cytokine concentration that increased TEER / epithelial resistance” value is listed as at least 5 ng/mL.
With TNF-α, the “benzamil-sensitive Isc, normalized to control” value with ENaC [1] (1 ng/mL cytokine, day 4) was found to be 81.2±5.4%; in the assay with ENaC [1] (1 ng/mL cytokine, day 16), 39.2±2.4%. Moreover, the “cytokine concentration that decreased benzamil-sensitive Isc” value in the assay with ENaC [1] was at least 0.05 ng/mL. Also, the “benzamil-sensitive Isc, normalized to control (plateau of reduction)” value with ENaC [1] (TNF-α around 10 ng/mL, 7 days) was found to be 17.4±3.6%. The “ENaC activity with increasing cytokine concentration” value in the assay with ENaC [2] was “concentration-dependent decrease”. Further, the “TEER, normalized to control” value in the assay on HBECs (1 ng/mL cytokine) came to 132.6±9.0%.
